Experimental data published in ChEMBL document CHEMBL1201862, “PubChem BioAssay data set” (2004).
Calls of active or inactive are those of the source.

Tests used:
[1] = C. albicans growth with fluconazole, confirmation, fluorescence, retest (AID 2467); type: functional, cell-based
[2] = Luminescence Cell-Based Dose Retest to Confirm Inhibitors of Cancer Stem Cells. [Related pubchem assays (depositor defined):AID2717, AID2721]; type: functional; details: Homo sapiens
[3] = NIH-3T3 fibroblast cytotoxicity, dose response, cytotoxicity control, cell-based, fluorescence, Alamar Blue, secondary assay (AID 2327); type: functional;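 further: NIH-3T3 mouse fibroblasts cultured with fluconazole at 8 µg/mL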
[4] = target: FAD-linked sulfhydryl oxidase ALR (Homo sapiens, UniProt P55789); experiment: inhibitors of human ALR sulfhydryl oxidase, dose response, biochemical, H2O2 detection, luminescence, cherry-pick (AID 493248)
Chain of FAD-linked sulfhydryl oxidase ALR (P55789 whole entry): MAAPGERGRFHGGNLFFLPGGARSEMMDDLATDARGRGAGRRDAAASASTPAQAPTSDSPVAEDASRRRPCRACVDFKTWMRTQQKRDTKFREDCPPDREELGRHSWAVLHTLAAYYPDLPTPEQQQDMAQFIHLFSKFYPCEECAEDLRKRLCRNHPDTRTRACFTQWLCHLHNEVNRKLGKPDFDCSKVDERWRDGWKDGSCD

Cytochrome P450 2D6 = Cytochrome P450 2D6 (Homo sapiens, UniProt P10635);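 further: CYP2D6 member of a cytochrome P450 panel assay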
Chain of Cytochrome P450 2D6 (P10635 whole entry): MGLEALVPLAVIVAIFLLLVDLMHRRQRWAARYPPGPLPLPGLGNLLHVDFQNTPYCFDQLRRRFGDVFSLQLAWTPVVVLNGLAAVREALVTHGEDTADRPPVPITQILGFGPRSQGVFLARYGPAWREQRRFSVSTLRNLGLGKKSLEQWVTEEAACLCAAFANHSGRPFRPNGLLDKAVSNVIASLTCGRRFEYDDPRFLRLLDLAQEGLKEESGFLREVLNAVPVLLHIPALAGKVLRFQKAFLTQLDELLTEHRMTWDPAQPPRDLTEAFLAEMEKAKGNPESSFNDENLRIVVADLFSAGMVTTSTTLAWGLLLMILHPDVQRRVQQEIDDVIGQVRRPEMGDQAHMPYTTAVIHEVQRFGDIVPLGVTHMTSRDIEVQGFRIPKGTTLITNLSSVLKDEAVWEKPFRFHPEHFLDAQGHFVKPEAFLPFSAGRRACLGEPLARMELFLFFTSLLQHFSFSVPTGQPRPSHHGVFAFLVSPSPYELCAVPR

[5] = target: T1, Calpain-2 catalytic subunit (Sus scrofa, UniProt P43367); experiment: pig calpain II inhibitor potency, dose response, biochemical, fluorogenic peptide substrate (AID 1420); type: functional
T1 sequence (P43367 whole entry): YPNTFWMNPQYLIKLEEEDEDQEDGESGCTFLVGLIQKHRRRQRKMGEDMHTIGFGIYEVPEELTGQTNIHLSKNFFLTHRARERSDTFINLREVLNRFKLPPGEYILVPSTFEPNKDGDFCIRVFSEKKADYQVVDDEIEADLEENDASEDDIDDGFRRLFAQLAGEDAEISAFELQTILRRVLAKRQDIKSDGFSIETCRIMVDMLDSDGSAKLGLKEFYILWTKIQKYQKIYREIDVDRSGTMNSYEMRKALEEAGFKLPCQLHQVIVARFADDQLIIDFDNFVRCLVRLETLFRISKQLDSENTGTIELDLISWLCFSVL

Cytochrome P450 2C9 = Cytochrome P450 2C9 (Homo sapiens, UniProt P11712)
Chain of Cytochrome P450 2C9 (P11712 whole entry): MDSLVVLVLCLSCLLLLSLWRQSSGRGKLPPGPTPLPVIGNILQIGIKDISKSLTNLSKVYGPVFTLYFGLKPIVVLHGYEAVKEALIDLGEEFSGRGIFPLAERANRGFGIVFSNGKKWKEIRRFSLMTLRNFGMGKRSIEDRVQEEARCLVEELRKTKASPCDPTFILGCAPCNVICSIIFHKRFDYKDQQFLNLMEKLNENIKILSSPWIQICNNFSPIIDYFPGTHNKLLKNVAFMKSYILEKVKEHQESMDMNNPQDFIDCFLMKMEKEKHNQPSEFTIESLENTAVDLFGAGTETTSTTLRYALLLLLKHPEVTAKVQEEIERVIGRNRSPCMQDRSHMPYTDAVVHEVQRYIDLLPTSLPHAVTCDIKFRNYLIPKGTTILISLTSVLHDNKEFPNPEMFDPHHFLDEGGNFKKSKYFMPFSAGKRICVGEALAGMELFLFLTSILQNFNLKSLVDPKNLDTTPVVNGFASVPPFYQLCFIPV

Cytochrome P450 1A2 = target: T2, Cytochrome P450 1A2 (Homo sapiens, UniProt P05177);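 further: PubChem cytochrome P450 panel assay, CYP1A2 panel member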
T2 sequence (P05177 whole entry): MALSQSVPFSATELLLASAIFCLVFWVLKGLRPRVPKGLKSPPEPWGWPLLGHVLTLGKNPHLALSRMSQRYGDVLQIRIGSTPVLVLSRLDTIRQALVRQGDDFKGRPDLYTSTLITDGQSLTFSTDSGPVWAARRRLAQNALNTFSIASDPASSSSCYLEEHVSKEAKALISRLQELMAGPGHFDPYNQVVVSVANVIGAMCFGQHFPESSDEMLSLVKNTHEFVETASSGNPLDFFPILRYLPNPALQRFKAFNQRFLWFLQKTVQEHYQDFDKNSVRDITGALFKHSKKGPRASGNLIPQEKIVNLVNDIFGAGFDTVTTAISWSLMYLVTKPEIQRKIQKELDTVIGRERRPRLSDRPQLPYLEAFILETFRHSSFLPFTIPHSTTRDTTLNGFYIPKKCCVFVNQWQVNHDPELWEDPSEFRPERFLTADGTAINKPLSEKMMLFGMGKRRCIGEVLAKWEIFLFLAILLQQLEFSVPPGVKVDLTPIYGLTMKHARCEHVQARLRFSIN

INS1 = experiment: beta cell apoptosis inhibitors, cytokine rescue, dose response, luminescence, retest (AID 449756); type: functional, cell-based; details: Rattus norvegicus;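 further: cell death triggered by IL-1 beta plus TNF-alpha plus IFN-gamma mixture; protective hits raise ATP signal compared with cytokine alone wells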
Streptococcus = experiment: Group A Streptococcus viability loss, dose response, counter-screen for streptokinase expression inhibitor project, luminescence, BacTiterGlo (AID 1915); type: functional, organism-based;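 further: potency for reduction of bacterial viability or growth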
[6] = tested on: Streptococcus sp. 'group A'; experiment: growth inhibition of control SK(-) GAS strain, dose response, counter-screen for streptokinase expression inhibitor project, luminescence, kanamycin, BacTiterGlo, confirmation (AID 1900); type: functional, organism-based
[7] = Shn3 3'UTR reporter inhibitors, dose response, cell-based, Clone20 osteoblasts, firefly luciferase, cherry-picked (AID 624132); type: functional;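 further: firefly luciferase luminescence from reporter carrying the Shn3 3'UTR in osteoblasts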
Cytochrome P450 3A4 = Cytochrome P450 3A4 (Homo sapiens, UniProt P08684);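 further: CYP3A4 tested as one member of a cytochrome P450 panel screen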
Chain of Cytochrome P450 3A4 (P08684 whole entry): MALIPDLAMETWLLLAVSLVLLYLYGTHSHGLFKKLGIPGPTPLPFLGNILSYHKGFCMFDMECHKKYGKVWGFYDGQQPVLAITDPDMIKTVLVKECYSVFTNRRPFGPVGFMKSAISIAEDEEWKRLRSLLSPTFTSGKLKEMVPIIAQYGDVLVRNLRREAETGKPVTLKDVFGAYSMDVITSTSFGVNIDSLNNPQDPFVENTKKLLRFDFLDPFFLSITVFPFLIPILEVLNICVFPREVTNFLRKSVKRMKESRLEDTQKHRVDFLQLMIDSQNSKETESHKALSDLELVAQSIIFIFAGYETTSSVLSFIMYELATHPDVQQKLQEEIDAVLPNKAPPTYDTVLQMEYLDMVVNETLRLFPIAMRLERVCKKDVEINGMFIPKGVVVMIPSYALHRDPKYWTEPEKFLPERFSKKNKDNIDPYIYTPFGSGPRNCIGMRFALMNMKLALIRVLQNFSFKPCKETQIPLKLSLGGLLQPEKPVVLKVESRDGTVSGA

Streptokinase A = target: T3, Streptokinase A (Streptococcus pyogenes serotype M1, UniProt P10520); experiment: S. pyogenes streptokinase expression inhibitors, potency, dose response, plasminogen activation absorbance, OD405 (AID 1914); type: functional, Streptococcus pyogenes M1 GAS;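 further: secreted streptokinase activity via plasminogen activation per viability signal from cell pellet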
T3 sequence (P10520 whole entry): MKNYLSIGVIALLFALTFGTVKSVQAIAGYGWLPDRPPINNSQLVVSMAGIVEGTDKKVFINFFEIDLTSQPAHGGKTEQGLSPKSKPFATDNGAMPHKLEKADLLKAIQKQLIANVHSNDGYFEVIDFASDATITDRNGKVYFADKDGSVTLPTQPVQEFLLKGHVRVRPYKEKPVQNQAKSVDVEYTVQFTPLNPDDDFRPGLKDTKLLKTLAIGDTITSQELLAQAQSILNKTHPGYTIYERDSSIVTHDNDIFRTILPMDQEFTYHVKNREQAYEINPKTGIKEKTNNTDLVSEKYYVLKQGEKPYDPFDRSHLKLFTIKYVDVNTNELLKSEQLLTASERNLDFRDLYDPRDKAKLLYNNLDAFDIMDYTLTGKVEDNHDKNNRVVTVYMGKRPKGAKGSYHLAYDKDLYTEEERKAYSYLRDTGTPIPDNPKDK

[8] = Luminescence Cell-Based Dose Confirmation HTS to Identify Inhibitors of Platelet Dense Granule Release. [Related pubchem assays: 1663 (Primary HTS), 1678 (Summary of Project)]; type: functional
Cytochrome P450 2C19 = Cytochrome P450 2C19 (Homo sapiens, UniProt P33261); experiment: Cytochrome panel assay with activity outcomes. Panel member name: p450-cyp2c19 Compounds with AC50 equal or less than 10 uM are considered active; type: functional; details: read-out: AC50
Chain of Cytochrome P450 2C19 (P33261 whole entry): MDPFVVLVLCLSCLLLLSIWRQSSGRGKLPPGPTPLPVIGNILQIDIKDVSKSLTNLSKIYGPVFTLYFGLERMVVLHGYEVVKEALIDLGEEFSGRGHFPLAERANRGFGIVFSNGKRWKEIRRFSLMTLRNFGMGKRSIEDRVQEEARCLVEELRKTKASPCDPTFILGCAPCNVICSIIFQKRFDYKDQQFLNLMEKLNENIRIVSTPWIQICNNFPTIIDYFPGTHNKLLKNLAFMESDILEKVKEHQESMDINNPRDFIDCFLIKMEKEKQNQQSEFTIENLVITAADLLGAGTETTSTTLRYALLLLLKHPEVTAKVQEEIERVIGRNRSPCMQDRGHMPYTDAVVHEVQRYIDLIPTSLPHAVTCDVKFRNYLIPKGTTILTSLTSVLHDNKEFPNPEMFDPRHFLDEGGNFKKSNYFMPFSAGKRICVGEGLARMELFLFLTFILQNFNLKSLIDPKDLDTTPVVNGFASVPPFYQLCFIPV

[9] = target: Luciferin 4-monooxygenase (Photinus pyralis, UniProt P08659); experiment: firefly luciferase enzyme inhibitors, dose response, biochemical, luminescence (AID 1891)
Chain of Luciferin 4-monooxygenase (P08659 whole entry): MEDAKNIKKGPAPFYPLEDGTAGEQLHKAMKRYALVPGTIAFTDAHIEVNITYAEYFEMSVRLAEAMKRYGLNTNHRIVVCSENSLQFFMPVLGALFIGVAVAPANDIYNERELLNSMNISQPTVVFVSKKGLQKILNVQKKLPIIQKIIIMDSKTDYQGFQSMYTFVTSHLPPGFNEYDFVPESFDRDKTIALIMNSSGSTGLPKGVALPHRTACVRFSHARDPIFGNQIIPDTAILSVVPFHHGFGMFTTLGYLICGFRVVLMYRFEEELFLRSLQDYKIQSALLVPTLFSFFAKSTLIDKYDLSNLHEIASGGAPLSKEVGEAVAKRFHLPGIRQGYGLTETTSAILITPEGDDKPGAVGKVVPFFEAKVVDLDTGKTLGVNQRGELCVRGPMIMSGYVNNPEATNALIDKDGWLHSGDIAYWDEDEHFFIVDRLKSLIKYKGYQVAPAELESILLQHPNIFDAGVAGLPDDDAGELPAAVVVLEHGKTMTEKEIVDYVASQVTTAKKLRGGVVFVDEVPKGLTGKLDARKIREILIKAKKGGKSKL

[10] = target: T4, Heat shock factor protein 1 (Mus musculus, UniProt P38532); experiment: HSF1 potentiators in luciferase reporter cells, confirmation, cell-based, NIH3T3, luminescence, dose retest (AID 435004); type: functional;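 further: stress induced by proteasome inhibitor MG132 added 30 min after compound; luciferase reporter driven by HSF1 response element in NIH3T3 cells; actives raise luminescence as potentiators of the MG132 stress response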
T4 sequence (P38532 whole entry): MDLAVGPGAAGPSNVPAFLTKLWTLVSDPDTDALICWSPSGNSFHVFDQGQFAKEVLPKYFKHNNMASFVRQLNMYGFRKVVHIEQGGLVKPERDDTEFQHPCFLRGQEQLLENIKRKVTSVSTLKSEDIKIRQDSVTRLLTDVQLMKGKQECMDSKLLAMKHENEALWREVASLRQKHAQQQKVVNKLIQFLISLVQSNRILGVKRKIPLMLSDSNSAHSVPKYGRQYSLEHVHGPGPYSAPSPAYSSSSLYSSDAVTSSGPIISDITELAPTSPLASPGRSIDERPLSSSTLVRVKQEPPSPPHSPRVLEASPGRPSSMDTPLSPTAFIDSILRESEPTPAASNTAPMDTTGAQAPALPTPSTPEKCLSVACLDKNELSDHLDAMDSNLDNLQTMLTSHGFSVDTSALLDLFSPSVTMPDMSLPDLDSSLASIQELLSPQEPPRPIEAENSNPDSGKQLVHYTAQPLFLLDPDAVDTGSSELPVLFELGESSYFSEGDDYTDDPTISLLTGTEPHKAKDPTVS

[11] = P. falciparum Dd2 growth inhibitors, dose response, SYBR Green, cherry-picked samples (AID 1159567); type: functional, cell-based

NCC(c1ccc(Cl)cc1Cl)c1c[nH]c2ccccc12 (configuration not stated)
EC50 [1]: > 38 µM (not active)
AC50 [2]: 8.89 µM (active)
EC50 [3]: 26.2 µM (active)

Cc1cc(NC(=O)C2CCCN(S(=O)(=O)c3c[nH]cn3)C2)ccc1Br (configuration not stated)
AC50 [4]: 69.2 µM (active)

CCN(CC)c1ccc(C2CC(=O)Nc3cc(OC)c(OC)cc32)cc1 (configuration not stated)
AC50 [4]: 2.47 µM (active)

COc1ccc2[nH]cc(CCNc3ccnc(-c4ccc(C(=O)N(C)C)cc4)n3)c2c1
AC50 (Cytochrome P450 2D6): 25.1 µM (inconclusive)

c1csc(CN2CC[C@@]3(CCCNC3)C2)n1
AC50 (Cytochrome P450 2D6): 12.6 µM (inconclusive)

COc1ccc(N2CCN(C(=O)NCc3ccc(OC)c(OC)c3)CC2)cc1
AC50 [4]: 5.76 µM (active)

CC(C)(C)OC(=O)NCCCC[C@H](NC(=O)c1nc[nH]c1C(=O)N[C@@H](CCCCNC(=O)OC(C)(C)C)C(=O)OC(C)(C)C)C(=O)OC(C)(C)C
IC50 [5]: 3.89 µM (not active)

CN=C(S)NNC(=O)c1ccccc1F
IC50 [5]: 17.7 µM (not active)

CC(C)c1cc(C(N)=O)c(NC(=O)C2CCC2)s1
AC50 [4]: 9.12 µM (active)

CCOC(=O)c1ccccc1NC(=O)c1cccc([N+](=O)[O-])c1
EC50 [1]: > 38 µM (not active)
EC50 [3]: > 150 µM (inactive)

CN(C)c1ccc(-c2nc(Nc3ccncc3)c3ccccc3n2)cc1
AC50 (Cytochrome P450 2C9): 0.794 µM (inconclusive)
AC50 (Cytochrome P450 2D6): 25.1 µM (inconclusive)

COc1cccc(N2CCN(Cc3cccnc3)CC2)c1
AC50 [4]: 10.3 µM (active)

Cc1ccc(Nc2nc(-c3sc(NC(=O)c4ccc([N+](=O)[O-])cc4)nc3C)cs2)cc1
AC50 (Cytochrome P450 2D6): 0.01 µM (inconclusive)
AC50 (Cytochrome P450 1A2): 2.24 µM (inconclusive)

O=C(Oc1c(CN2CCOCC2)cc(Cl)c2cccnc12)c1ccccc1
AC50 (INS1): 4.16 µM (active)
EC50 [1]: 3.71 µM (active)
EC50 [3]: > 150 µM (inactive)

CCN(CC)C(=S)Sc1c(O)nc2ccc(Cl)cc2c1-c1ccccc1
EC50 (Streptococcus): 1.8 µM (active)
EC50 [6]: 0.831 µM (active)
AC50 [7]: 27 µM (active)

CN(C)c1ccc(-c2nc(NC3CCNCC3)c3ccccc3n2)cc1
AC50 (Cytochrome P450 3A4): 31.6 µM (inconclusive)
AC50 (Cytochrome P450 2D6): 39.8 µM (inconclusive)

O=C(NCc1cccnc1)C(=O)NCC(c1ccco1)N1CCN(c2ccc(F)cc2)CC1 (configuration not stated)
AC50 [4]: 6.41 µM (active)

Cc1cc(C)c(C(=O)COC(=O)CCNS(=O)(=O)c2c(Cl)cccc2Cl)cc1C
IC50 [5]: 4.97 µM (not active)

O=C(N/N=C1/CC/C(=N/NC(=O)c2cccnc2)CC1)c1cccnc1
AC50 [4]: 0.879 µM (active)

Cn1c(N)c(C(=O)COC(=O)CCC2CCCCC2)c(=O)n(C)c1=O
IC50 [5]: 5.23 µM (active)

CCc1c(C)c2cc(Cl)c(O)c(CN3CCCCC3)c2oc1=O
AC50 [4]: 9.26 µM (active)

CCCCC(CC)C(=O)Oc1ccc(O)c(C(C)(C)C)c1 (configuration not stated)
IC50 [5]: 13.5 µM (not active)
EC50 (Streptococcus): 7.84 µM (active)
EC50 [6]: 3.2 µM (active)
EC50 (Streptokinase A): 4.96 µM (active)

CCC(=O)N1CCc2cc(S(=O)(=O)NCCC(=O)N3CCN(c4cccc(C)c4)C(C)C3)ccc21 (configuration not stated)
AC50 [4]: 72.4 µM (active)

O=C(NCC1CC1)Nc1cccs1
AC50 [4]: 4.97 µM (active)

COc1cc(N/C=C(\C(C)=O)c2ccccc2)cc(OC)c1
IC50 [5]: > 50 µM (not active)

CCCn1c(N)c(C(=O)COC(=O)c2c(C)noc2C)c(=O)n(C)c1=O
EC50 [1]: > 38 µM (not active)
EC50 [3]: > 150 µM (inactive)

COC(=O)c1c(C(=O)OC)c(-c2ccc(Cl)c(Cl)c2)n2c1CCC2
EC50 [1]: > 38 µM (not active)
EC50 [3]: > 160 µM (inactive)

Cc1cc(NC(=O)c2ccccc2Cl)no1
EC50 [8]: > 112 µM (not active)
AC50 (Cytochrome P450 2C19): 14.1 µM (inconclusive)
EC50 [9]: > 112 µM (not active)
AC50 (Cytochrome P450 1A2): 31.6 µM (inconclusive)

Cc1nc(Nc2ccccc2)sc1C(=O)c1ccccc1
IC50 [5]: 3.41 µM (not active)

CCn1c(S)nnc1CN1C(=O)CSc2ccccc21
AC50 [4]: 1.85 µM (active)

O=C1CCC(c2ccccc2)=NN1c1nc2ccccc2s1
AC50 (Cytochrome P450 2C9): 3.98 µM (inconclusive)
AC50 (Cytochrome P450 2D6): 3.98 µM (inconclusive)

COc1ccc(CNc2nc(-c3ccc4c(c3)OCO4)nc3ccccc23)c(OC)c1
AC50 (Cytochrome P450 2C9): 0.501 µM (inconclusive)
AC50 (Cytochrome P450 2D6): 12.6 µM (inconclusive)

COC(=O)N1CCN(C(=O)Cc2ccc(Cl)c(Cl)c2)[C@H](CN2CCCC2)C1
AC50 (Cytochrome P450 2D6): 20 µM (inconclusive)

S=C(NCc1ccco1)N/N=C/c1ccc(Cl)cc1
IC50 [5]: 6.94 µM (not active)
EC50 [10]: > 260 µM (inactive)

CC(=O)N/N=C/c1cc(C)n(-c2ccc(Br)cc2)c1C
AC50 [4]: 0.414 µM (active)

O=C(N/N=C\c1cccc(Br)c1)c1ccccc1-n1cccc1
IC50 [5]: > 50 µM (not active)

CO[C@H]1CN(C)C(=O)c2ccc(NC(=O)Nc3cc(F)ccc3F)cc2OC[C@@H](C)N(C)C[C@H]1C
AC50 [11]: 11.4 µM (active)

C[C@H](CO)N1C[C@H](C)[C@H](CN(C)S(=O)(=O)c2ccccc2F)OCc2ccccc2-c2c(n(C)c3ccccc23)C1=O
AC50 [11]: 3.61 µM (active)

C[C@H]1CN([C@@H](C)CO)S(=O)(=O)c2ccc(C#Cc3ccncc3)cc2O[C@H]1CN(C)S(=O)(=O)c1ccc(F)cc1
AC50 [11]: 4.11 µM (active)

COc1ccc2c3c([nH]c2c1)[C@@H](CO)N(Cc1cccc(F)c1)CC31CCN(C(C)=O)CC1
AC50 [11]: 5.78 µM (active)

COc1ccc(S(=O)(=O)N(C)C[C@H]2Oc3c(NC(=O)Nc4ccc5c(c4)OCO5)cccc3C(=O)N([C@@H](C)CO)C[C@H]2C)cc1
AC50 [11]: 4.41 µM (active)
